In one assay the target is T1, Src^32K (Mus musculus, UniProt P05480).
T1 construct: mouse Src^85-535 (Src^32K); GST (cleaved yes); made in house; host or cells: baculovirus-infected Sf9 insect cells, co-expressed with human Csk
As to the kind of experiment: Fluorescence anisotropy binding of Mant-labelled nucleotides. An excerpt:
(§1) To characterise the nucleotide binding of Itk and Src, we purified recombinant wild type and mutant constructs of Itk and Src containing their respective SH3, SH2, and kinase domains (from here on referred to as Itk^32K, Src^32K, and Src^32KΔC, Fig. 1a). We confirmed the mass and homogeneity of isolated species by high-resolution anion exchange chromatography, intact mass spectrometry, and Western blotting with phospho-specific antibodies (Supplementary Figs 1–3). We performed fluorescence anisotropy measurements using Mant-labelled nucleotides. […] To avoid autophosphorylation during the course of the titration, we used the non-hydrolysable ATP analogue AMPPNP. […] Src^32K bound ADP approximately 6-fold more tightly than AMPPNP (Supplementary Fig. 4d).
(§2) Human Itk^171–620 (Itk^32K), mouse Src^85-535 (Src^32K), and mouse Src^85-523 (Src^32KΔC) as well as their respective point mutants were expressed as GST fusions in baculovirus-infected Sf9 insect cells. For the generation of Tyr527-phosphorylated Src^85-535, the protein was co-expressed with human Csk using pFastBac Dual (Invitrogen). Proteins were purified by sequential glutathione-sepharose affinity chromatography, TEV cleavage, high-resolution anion exchange, and size exclusion chromatography in a final buffer of 50 mM Tris, pH 7.5, 200 mM NaCl, 1 mM TCEP, 1% (v/v) glycerol.
(§3) The binding constants for ADP and AMPPNP were determined for Src and Itk proteins by fluorescence anisotropy, using 2′/3′-Mant-labelled nucleotides (Jena Bioscience). Increasing concentrations of Itk^32K, Itk^L351A or Src^32K were incubated with 40 μM Mant-nucleotide in 30 mM Tris pH 7.5, 200 mM NaCl, 5 mM MgCl2, and 1 mM TCEP. Measurements were made with a Perkin Elmer LS50B fluorimeter (λex = 355 nm, λem = 447 nm) at 20 °C. For each data point 50–60 measurements, each with an integration time of 1 s, were averaged. For competition nucleotide displacement assays, 40–80 μM of protein was incubated with 40 μM Mant-ADP until equilibrium was established. Unlabelled nucleotide was titrated into the reaction and fluorescence anisotropy monitored. The equilibrium inhibition constant for the unlabelled nucleotide was calculated from the fitted curve.
In general terms: In fluorescence polarisation assays a small probe gives low polarisation when free and higher when bound to something large.

The target in a further assay is T2, Itk^32K (Homo sapiens, UniProt Q08881).
T2 construct: Human Itk^171–620 (Itk^32K); GST (cleaved yes); made in house; host or cells: baculovirus-infected Sf9 insect cells
T2 sequence (Q08881 171-620): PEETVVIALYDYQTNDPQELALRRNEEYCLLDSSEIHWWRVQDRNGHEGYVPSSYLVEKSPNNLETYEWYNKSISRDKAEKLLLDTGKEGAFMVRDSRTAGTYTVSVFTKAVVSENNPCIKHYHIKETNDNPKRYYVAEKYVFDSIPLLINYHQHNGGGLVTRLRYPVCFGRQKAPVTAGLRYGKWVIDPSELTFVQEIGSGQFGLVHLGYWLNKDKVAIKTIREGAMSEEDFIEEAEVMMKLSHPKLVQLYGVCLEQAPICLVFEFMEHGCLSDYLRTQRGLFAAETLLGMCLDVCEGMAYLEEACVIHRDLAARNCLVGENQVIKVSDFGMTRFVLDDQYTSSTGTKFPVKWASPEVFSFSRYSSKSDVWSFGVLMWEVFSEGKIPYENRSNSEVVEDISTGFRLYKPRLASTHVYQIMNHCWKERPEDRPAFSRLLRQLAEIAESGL
The assay is described as above. The following applies: wild type Itk^32K; 40 μM Mant-nucleotide, 20 °C.
From the text: as §1, §2, §3

For assay [1], the target named is T3, Src^32KΔC (Mus musculus, UniProt P05480).
T3 construct: mouse Src^85-523 (Src^32KΔC); GST (cleaved yes); made in house; host or cells: baculovirus-infected Sf9 insect cells
T3 sequence (P05480 85-523, stated change not applied): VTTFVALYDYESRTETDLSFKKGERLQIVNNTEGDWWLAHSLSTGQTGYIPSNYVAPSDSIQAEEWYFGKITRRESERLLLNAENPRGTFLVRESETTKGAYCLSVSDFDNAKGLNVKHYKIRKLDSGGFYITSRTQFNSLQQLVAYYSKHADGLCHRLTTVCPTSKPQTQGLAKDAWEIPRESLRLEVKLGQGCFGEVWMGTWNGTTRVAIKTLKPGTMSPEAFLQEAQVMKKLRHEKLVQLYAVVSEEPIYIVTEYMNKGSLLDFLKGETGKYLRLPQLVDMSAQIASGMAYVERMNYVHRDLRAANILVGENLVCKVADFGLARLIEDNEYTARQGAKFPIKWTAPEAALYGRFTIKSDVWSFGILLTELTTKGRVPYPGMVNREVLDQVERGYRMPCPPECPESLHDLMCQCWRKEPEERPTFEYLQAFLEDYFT
Nature of the assay: Competition nucleotide displacement assay (Mant-ADP, fluorescence anisotropy). The class given is binding. As to the method:
Figure 2 Itk adopts a Src-like autoinhibited conformation. (a) Competition nucleotide displacement assay for Src^32KΔC. 40 μM Src^32KΔC was incubated with 40 μM Mant-ADP until equilibrium was established. Unlabelled ADP or AMPPNP was titrated into the reaction and fluorescence anisotropy monitored. […] (b) Small angle X-ray scattering curves for Itk^32K (cyan), Src^32K (magenta), Src^32KΔC (blue), and Src^32K R175L (green). […] (d) Table of physical parameters obtained from the scattering curves for Itk^32K, Src^32K, Src^32KΔC, and Src^32K R175L. (e)Ab initio model of Itk^32K and docking of autoinhibited Src (2SRC.pdb) into the molecular envelope. Two orientations of the envelope are shown for clarity. (f) Ab initio molecular envelope for Src^32KΔC illustrates the fit of the crystal structure of autoinhibited Src. TEXT PRINTED IN THE PICTURE: (a) ADP: Src^32KΔC Ki (mM): 0.03 ± 0.008 | (a) ANP: Src^32KΔC Ki (mM): 0.69 ± 0.140
as §3

Assay [2] addresses T3, Src^32KΔC. As to the kind of experiment: Differential scanning fluorimetry (thermal stability vs nucleotide concentration). The following applies: vs AMPPNP. It counts as binding. An excerpt:
Having observed that Itk^32K binds and is stabilised by ADP in the absence of a C-terminal tail, we investigated whether the C-terminal tail of Src influences its nucleotide binding or conformation in vitro, using a construct of Src lacking its C-tail (Src^32KΔC) and a SH2 domain mutant of Src that is incapable of binding phosphotyrosine peptides (Src^32K R175L, Supplementary Fig. 3a,b)[39]. […] Thermal stability measurements support the stabilisation of Src^32KΔC by ADP (Supplementary Fig. 6a). Thermal stabilities as a function of nucleotide concentration were measured by differential scanning fluorimetry (DSF). Samples contained 0.1 mg/ml protein in 50 mM Tris pH 7.5, 150 mM NaCl, 1 mM TCEP, and 5 mM MgCl2 with ADP, ATP, or AMPPNP concentrations ranging from 0–16 mM. Samples were measured in triplicate using a BioRad iQ™5 Multicolor Real-Time PCR Detection System. For detection of phosphorylated protein, samples were diluted and 1 ng and 15 ng were loaded to SDS-PAGE for Src and Itk proteins, respectively. Phosphorylation was measured by immunoblot.
(DSF heats the sample and reads unfolding from a dye or from intrinsic fluorescence.)

Values joined by “and” are separate entries in the source; they are usually repeats but may differ in a detail not shown here. Identical values can stand only once.

T1 sequence (P05480 85-535): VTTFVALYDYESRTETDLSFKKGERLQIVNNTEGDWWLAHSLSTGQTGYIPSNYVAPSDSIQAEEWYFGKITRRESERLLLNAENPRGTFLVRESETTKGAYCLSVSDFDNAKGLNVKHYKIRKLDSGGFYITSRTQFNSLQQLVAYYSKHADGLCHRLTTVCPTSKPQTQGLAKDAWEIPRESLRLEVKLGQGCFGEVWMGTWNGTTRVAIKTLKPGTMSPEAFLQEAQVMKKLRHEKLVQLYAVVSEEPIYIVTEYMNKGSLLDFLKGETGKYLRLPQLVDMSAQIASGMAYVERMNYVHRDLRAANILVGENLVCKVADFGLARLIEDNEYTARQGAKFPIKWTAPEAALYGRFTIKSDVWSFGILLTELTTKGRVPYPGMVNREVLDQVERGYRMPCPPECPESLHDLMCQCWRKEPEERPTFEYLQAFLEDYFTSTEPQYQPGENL

What is called Kd is the equilibrium constant for the complex coming apart. The low end stands for higher affinity, the high end for lower affinity. A word on the Ki: it is a measure of affinity in units of concentration, obtained from inhibition or displacement. Take `Nc1ncnc2c1ncn2[C@@H]1O[C@H](COP(=O)(O)OP(=O)(O)O)[C@@H](O)[C@H]1O` [ADP]: the dissociation constant (Kd) was 66 µM at Src^32K (Mant-labelled nucleotide); 23.7 µM and 24 µM at Itk^32K. Moreover, the “fold difference in affinity, ADP tighter than AMPPNP” value on Src^32K (direct Mant-nucleotide binding) is “approximately 6 fold”. The Ki on Src^32KΔC [1] (40 μM Src^32KΔC, 40 μM Mant-ADP, read-out: Ki (equilibrium inhibition constant)) stood at 30 ± 8 µM. Moreover, on Src^32KΔC [1] (Src^32KΔC, displacement of Mant-ADP), the “fold difference in Ki, ADP preferred over AMPPNP” value is on record as “approximately 23 fold”. For the same compound, the “thermal stabilisation compared with other nucleotides” value at Src^32KΔC [2] is “higher thermal stability”.

The record behind these values is article PMC5727165, “A switch in nucleotide affinity governs activation of the Src and Tec family kinases” (Scientific Reports, 2017).
